Test results from PubChem BioAssay (NCI).
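96-well plates; 48 h exposure; 5 concentrations. Endpoints by linear interpolation between flanking doses. Not reached: highest tested concentration assigned. GI50: concentration for 50% inhibition of growth. TGI denotes the concentration required for complete inhibition of growth.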

Assays:
Assay in all cases: DTP human tumour cell line panel, 48 h
T-47D breast = system: T-47D breast
DU-145 prostate = system: DU-145 prostate
OVCAR-8 ovarian = system: OVCAR-8 ovarian
UACC-62 melanoma = system: UACC-62 melanoma
HCT-116 colon = system: HCT-116 colon
HT29 colon = system: HT29 colon
CAKI-1 renal = system: CAKI-1 renal
RPMI-8226 leukemia = system: RPMI-8226 leukemia
CCRF-CEM leukemia = system: CCRF-CEM leukemia
EKVX NSCLC = system: EKVX NSCLC
NCI-H460 lung = system: NCI-H460 lung
UACC-257 melanoma = system: UACC-257 melanoma
SN12C renal = system: SN12C renal
BT-549 breast = system: BT-549 breast
HOP-92 NSCLC = system: HOP-92 NSCLC
HS 578T breast = system: HS 578T breast
IGROV1 ovarian = system: IGROV1 ovarian
MOLT-4 leukemia = system: MOLT-4 leukemia
K-562 leukemia = system: K-562 leukemia
NCI-H23 lung = system: NCI-H23 lung
COLO 205 colon = system: COLO 205 colon
MALME-3M melanoma = system: MALME-3M melanoma
ACHN renal = system: ACHN renal
KM12 colon = system: KM12 colon
SF-268 CNS = system: SF-268 CNS
TK-10 renal = system: TK-10 renal
LOX IMVI melanoma = system: LOX IMVI melanoma
NCI/ADR-RES ovarian = system: NCI/ADR-RES ovarian

Cc1c(-c2nnc(-c3ccc(F)cc3)o2)nnn1-c1ccnc2c(C(F)(F)F)cccc12
TGI (T-47D breast): > 100 µM | GI50 (DU-145 prostate): 30.4 µM | TGI (DU-145 prostate): > 100 µM | GI50 (OVCAR-8 ovarian): 41.8 µM | TGI (OVCAR-8 ovarian): > 100 µM | GI50 (UACC-62 melanoma): > 100 µM | TGI (UACC-62 melanoma): > 100 µM | GI50 (HCT-116 colon): 16.7 µM | TGI (HCT-116 colon): > 100 µM | GI50 (HT29 colon): 34.4 µM | TGI (HT29 colon): > 100 µM | GI50 (CAKI-1 renal): 29.5 µM | TGI (CAKI-1 renal): > 100 µM | GI50 (RPMI-8226 leukemia): 30.6 µM | TGI (RPMI-8226 leukemia): > 100 µM | GI50 (CCRF-CEM leukemia): > 100 µM | TGI (CCRF-CEM leukemia): > 100 µM | GI50 (EKVX NSCLC): 31.8 µM | TGI (EKVX NSCLC): > 100 µM | GI50 (NCI-H460 lung): 30.4 µM | TGI (NCI-H460 lung): > 100 µM | GI50 (UACC-257 melanoma): > 100 µM | TGI (UACC-257 melanoma): > 100 µM | GI50 (SN12C renal): 41.3 µM | TGI (SN12C renal): > 100 µM | GI50 (BT-549 breast): 21.6 µM | TGI (BT-549 breast): 58.1 µM | GI50 (HOP-92 NSCLC): 14.7 µM | TGI (HOP-92 NSCLC): 76.9 µM | GI50 (HS 578T breast): 15.5 µM | TGI (HS 578T breast): 53.9 µM | GI50 (IGROV1 ovarian): 23.4 µM | TGI (IGROV1 ovarian): > 100 µM | GI50 (MOLT-4 leukemia): > 100 µM | TGI (MOLT-4 leukemia): > 100 µM | GI50 (K-562 leukemia): 19.8 µM | TGI (K-562 leukemia): > 100 µM | GI50 (NCI-H23 lung): 65.7 µM | TGI (NCI-H23 lung): > 100 µM | GI50 (COLO 205 colon): 42.1 µM | TGI (COLO 205 colon): > 100 µM | GI50 (MALME-3M melanoma): 41.7 µM | TGI (MALME-3M melanoma): > 100 µM | GI50 (ACHN renal): 30.8 µM | TGI (ACHN renal): > 100 µM | GI50 (KM12 colon): 89.5 µM | TGI (KM12 colon): > 100 µM | GI50 (SF-268 CNS): 26.7 µM | TGI (SF-268 CNS): > 100 µM | GI50 (TK-10 renal): 32.2 µM | TGI (TK-10 renal): 98.8 µM | GI50 (LOX IMVI melanoma): 44.5 µM | TGI (LOX IMVI melanoma): > 100 µM | GI50 (NCI/ADR-RES ovarian): 40.3 µM | TGI (NCI/ADR-RES ovarian): > 100 µM
